The source of these data is ChEMBL document CHEMBL1201862, “PubChem BioAssay data set” (2004).

In experiment [1] the target is T1, 1-phosphatidylinositol 4,5-bisphosphate phosphodiesterase gamma-1 (Homo sapiens, UniProt P19174).
T1 sequence (P19174 whole entry): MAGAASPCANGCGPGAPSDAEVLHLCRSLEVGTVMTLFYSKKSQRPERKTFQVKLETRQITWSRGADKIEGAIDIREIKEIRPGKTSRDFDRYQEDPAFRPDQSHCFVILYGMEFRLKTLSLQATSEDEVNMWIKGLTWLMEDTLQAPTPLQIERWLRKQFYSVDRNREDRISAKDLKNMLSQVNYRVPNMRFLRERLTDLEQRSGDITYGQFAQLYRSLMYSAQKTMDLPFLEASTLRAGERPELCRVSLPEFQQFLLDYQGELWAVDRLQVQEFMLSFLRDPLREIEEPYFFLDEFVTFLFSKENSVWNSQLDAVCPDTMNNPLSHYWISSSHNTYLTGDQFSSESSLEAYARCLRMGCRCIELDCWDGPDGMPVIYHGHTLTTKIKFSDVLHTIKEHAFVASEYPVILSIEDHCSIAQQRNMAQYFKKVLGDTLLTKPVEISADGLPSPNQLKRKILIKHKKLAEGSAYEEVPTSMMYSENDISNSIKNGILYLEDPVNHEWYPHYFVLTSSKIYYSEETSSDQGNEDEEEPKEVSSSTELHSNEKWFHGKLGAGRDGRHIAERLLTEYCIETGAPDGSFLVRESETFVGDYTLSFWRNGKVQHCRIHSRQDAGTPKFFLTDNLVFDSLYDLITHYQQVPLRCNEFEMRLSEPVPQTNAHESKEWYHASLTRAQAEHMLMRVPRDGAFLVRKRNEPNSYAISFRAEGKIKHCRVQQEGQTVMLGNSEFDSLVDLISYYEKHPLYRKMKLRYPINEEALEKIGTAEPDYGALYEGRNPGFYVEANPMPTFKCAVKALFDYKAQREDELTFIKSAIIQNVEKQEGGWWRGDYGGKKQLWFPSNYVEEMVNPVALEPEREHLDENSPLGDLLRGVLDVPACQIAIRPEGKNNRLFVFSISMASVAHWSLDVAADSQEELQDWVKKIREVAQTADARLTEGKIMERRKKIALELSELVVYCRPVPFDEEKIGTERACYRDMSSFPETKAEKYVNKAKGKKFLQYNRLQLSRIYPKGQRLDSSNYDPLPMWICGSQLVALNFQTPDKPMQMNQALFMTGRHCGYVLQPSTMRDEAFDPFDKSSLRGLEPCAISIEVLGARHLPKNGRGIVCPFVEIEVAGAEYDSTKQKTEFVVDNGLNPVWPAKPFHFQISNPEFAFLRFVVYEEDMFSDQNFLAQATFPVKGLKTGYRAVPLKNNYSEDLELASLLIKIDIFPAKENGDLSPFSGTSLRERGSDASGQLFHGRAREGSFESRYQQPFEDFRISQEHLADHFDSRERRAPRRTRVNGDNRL
The experiment can be described thus: Counterscreen for inhibitors of phospholipase C isozymes (PLC-B3): Fluorescence-based biochemical high throughput dose response assay to identify inhibitors of phospholipase C isozymes (PLC-gamma1). A general note: A counterscreen serves to expose hits that act by an unwanted route or on another target.

Experiment [2] deals with T2, RNA-binding protein pos-1 (Caenorhabditis elegans, UniProt G5EF15).
T2 sequence (G5EF15 whole entry): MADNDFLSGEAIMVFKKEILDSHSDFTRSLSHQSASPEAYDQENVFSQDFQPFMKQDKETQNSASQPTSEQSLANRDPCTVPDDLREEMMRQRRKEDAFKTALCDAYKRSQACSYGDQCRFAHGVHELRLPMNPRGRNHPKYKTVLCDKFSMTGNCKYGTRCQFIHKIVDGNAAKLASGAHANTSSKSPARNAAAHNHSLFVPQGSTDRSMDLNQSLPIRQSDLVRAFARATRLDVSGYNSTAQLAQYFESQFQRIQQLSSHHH
Description: inhibitors of POS-1/mex-3 RNA binding, dose response, biochemical, fluorescence polarization (AID 1964).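 Also: purified POS-1 fused to maltose binding protein made in E. coli; potency of compounds blocking POS-1 binding to fluorescent RNA.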

Activity calls are given as the source filed them.

As for `Oc1ccc(/C=N/NC(=S)Nc2cccnc2)c(O)c1O`, the IC50 in experiment [1] was > 122 µM (inactive). Further, the EC50 in experiment [2] was 71.4 µM (active).

The term IC50 denotes the concentration that inhibits the measured activity by half. A word on the EC50: it is the concentration needed to bring the measured effect to its halfway point.
